From ChEMBL document CHEMBL6114970, “Development of carbazole-based molecules for inhibition of mutant hSOD1 protein aggregation in Amyotrophic Lateral Sclerosis” (Bioorg Med Chem, 2025)
pIC50: −log10 of the molar value. The source made the active and inactive calls. The rule behind the calls is not given here.

Experiments:
Homo sapiens [1] = organism: Homo sapiens; test: Inhibition of TCEP-treated human SOD1 A4V mutant aggregation at 50 uM measured after 24 hrs by thioflavin-T fluorescence assay relative to control
Homo sapiens [2] = organism: Homo sapiens; test: Inhibition of TCEP-treated human SOD1 G85R mutant aggregation at 50 uM measured after 24 hrs by thioflavin-T fluorescence assay relative to control
Homo sapiens [3] = organism: Homo sapiens; test: Inhibition of TCEP-treated human SOD1 G93A mutant aggregation at 50 uM measured after 24 hrs by thioflavin-T fluorescence assay relative to control
[4] = (§1) Inhibition of TCEP-treated human SOD1 A4V mutant aggregation measured after 24 hrs by thioflavin-T fluorescence assay
Homo sapiens [5] = organism: Homo sapiens; test: as §1
[6] = (§2) Inhibition of TCEP-treated human SOD1 G85R mutant aggregation measured after 24 hrs by thioflavin-T fluorescence assay
Homo sapiens [7] = organism: Homo sapiens; test: as §2
[8] = (§3) Inhibition of TCEP-treated human SOD1 G93A mutant aggregation measured after 24 hrs by thioflavin-T fluorescence assay
Homo sapiens [9] = organism: Homo sapiens; test: as §3
Homo sapiens [10] = organism: Homo sapiens; test: Inhibition of TCEP-treated human SOD1 A4V mutant aggregation assessed as formation of few slender fibrils at 50 uM measured after 24 hrs by 1% uranyl acetate staining based transmission electron microscopy
Homo sapiens [11] = organism: Homo sapiens; test: Inhibition of TCEP-treated human SOD1 G85R mutant aggregation assessed as formation of few slender fibrils at 50 uM measured after 24 hrs by 1% uranyl acetate staining based transmission electron microscopy
Homo sapiens [12] = organism: Homo sapiens; test: Inhibition of TCEP-treated human SOD1 G93A mutant aggregation assessed as formation of few slender fibrils at 50 uM measured after 24 hrs by 1% uranyl acetate staining based transmission electron microscopy
Homo sapiens [13] = organism: Homo sapiens; test: Inhibition of TCEP-treated human SOD1 A4V mutant aggregation assessed as size of protein at 50 uM measured after 24 hrs at 37 deg C by dynamic light scattering analysis (reference value: 154.4 nm)
Homo sapiens [14] = organism: Homo sapiens; test: Inhibition of TCEP-treated human SOD1 G85R mutant aggregation assessed as size of protein at 50 uM measured after 24 hrs at 37 deg C by dynamic light scattering analysis (reference value: 151.1 nm)
Homo sapiens [15] = organism: Homo sapiens; test: Inhibition of TCEP-treated human SOD1 G93A mutant aggregation assessed as size of protein at 50 uM measured after 24 hrs at 37 deg C by dynamic light scattering analysis (reference value: 84.38 nm)
N2a [16] = test: Cytotoxicity against mouse Neuro2a cells over expressing hSOD1 G85R mutant assessed as reduction in cell viability up to 10 uM measured after 48 hrs by MTT assay; type: toxicity, cell-based
N2a [17] = test: Cytotoxicity against mouse Neuro2a cells over expressing hSOD1 G85R mutant assessed as reduction in cell viability at 25 uM measured after 48 hrs by MTT assay; type: toxicity, cell-based
N2a [18] = test: Protection against MG132-induced SOD1 aggregation-associated cytotoxicity in mouse Neuro2a cells over expressing hSOD1 G85R mutant assessed as increase in cell viability at 1 uM preincubated for 24 hrs followed by MG132 addition and measured after 24 hrs by MTT assay; type: functional, cell-based; conditions: time 48.0 hrs
N2a [19] = test: Protection against MG132-induced SOD1 aggregation-associated cytotoxicity in mouse Neuro2a cells over expressing hSOD1 G85R mutant assessed as cell viability at 5 to 10 uM preincubated for 24 hrs followed by MG132 addition and measured after 24 hrs by MTT assay (reference value: 45%); type: functional; conditions: dose 5-10 µM, time 48 hrs
N2a [20] = test: Protection against MG132-induced SOD1 aggregation-associated cytotoxicity in mouse Neuro2a cells over expressing hSOD1 G85R mutant assessed as restoration of cell viability by phase contrast microscopy; type: functional, cell-based
N2a [21] = test: Protection against MG132-induced SOD1 aggregation-associated cytotoxicity in mouse Neuro2a cells over expressing hSOD1 G85R mutant assessed as restoration of normal morphology by phase contrast microscopy; type: functional, cell-based
N2a [22] = test: Protection against MG132-induced SOD1 aggregation-associated apoptosis in mouse Neuro2a cells over expressing hSOD1 G85R mutant assessed as early apoptotic cells preincubated for 24 hrs followed by MG132 addition and measured after 24 hrs by Annexin V-APC/propidium iodide staining based flow cytometry (reference value: 1.41 %); type: functional; conditions: time 48 hrs
N2a [23] = test: Protection against MG132-induced SOD1 aggregation-associated apoptosis in mouse Neuro2a cells over expressing hSOD1 G85R mutant assessed as late apoptotic cells preincubated for 24 hrs followed by MG132 addition and measured after 24 hrs by Annexin V-APC/propidium iodide staining based flow cytometry (reference value: 20.93 to 23.01 %); type: functional; conditions: time 48 hrs
N2a [24] = test: Protection against MG132-induced SOD1 aggregation-associated apoptosis in mouse Neuro2a cells over expressing hSOD1 G85R mutant assessed as necrotic cells preincubated for 24 hrs followed by MG132 addition and measured after 24 hrs by Annexin V-APC/propidium iodide staining based flow cytometry (reference value: 2.23 %); type: functional; conditions: time 48 hrs
N2a [25] = test: Protection against MG132-induced SOD1 aggregation-associated apoptosis in mouse Neuro2a cells over expressing hSOD1 G85R mutant assessed as upregulation of Bcl-2 expression preincubated for 24 hrs followed by MG132 addition and measured after 24 hrs by Western blot analysis; type: functional, cell-based; conditions: time 48.0 hrs
N2a [26] = test: Protection against MG132-induced SOD1 aggregation-associated apoptosis in mouse Neuro2a cells over expressing hSOD1 G85R mutant assessed as upregulation of Xiap expression preincubated for 24 hrs followed by MG132 addition and measured after 24 hrs by Western blot analysis; type: functional, cell-based; conditions: time 48.0 hrs
N2a [27] = test: Protection against MG132-induced SOD1 aggregation-associated oxidative stress in mouse Neuro2a cells over expressing hSOD1 G85R mutant assessed as reduction in ROS level at 10 uM preincubated for 24 hrs followed by MG132 addition and measured after 24 hrs by H2DCFDA dye based flow cytometry; type: functional, cell-based; conditions: time 48.0 hrs

CCn1c2ccccc2c2cc(NC(=O)NNC(=S)Nc3ccc(F)cc3)ccc21
inhibition (Homo sapiens [1]): 76.2%
inhibition (Homo sapiens [2]): 76.8%
inhibition (Homo sapiens [3]): 80.7%
pIC50 [4]: 4.55
inhibition (Homo sapiens [5]): Dose-dependent-effect
pIC50 [6]: 4.63
inhibition (Homo sapiens [7]): Dose-dependent-effect
pIC50 [8]: 4.54
inhibition (Homo sapiens [9]): Dose-dependent-effect
inhibition (Homo sapiens [10]): Active; Displayed Better Reduction In Aggregate Formation Than Curcumin
inhibition (Homo sapiens [11]): Active; Displayed Better Reduction In Aggregate Formation Than Curcumin
inhibition (Homo sapiens [12]): Active; Displayed Better Reduction In Aggregate Formation Than Curcumin
Activity (Homo sapiens [13]): 27.7 nm
Activity (Homo sapiens [14]): 26.4 nm
Activity (Homo sapiens [15]): 21.7 nm
Activity (N2a [16]): Non-toxic
Activity (N2a [17]): Toxic
Activity (N2a [18]): inactive
Activity (N2a [19]): 60%
Activity (N2a [20]): Active
Activity (N2a [21]): Active
Activity (N2a [22]): 1.19%
Activity (N2a [23]): 5.52%
Activity (N2a [24]): 2.13%
Activity (N2a [25]): Active
Activity (N2a [26]): Active
Activity (N2a [27]): Active; Showed Better Reduction Compared To Curcumin
